Assay results published in US9624214B2, “Amino-substituted imidazo[1,2-a]pyridinecarboxamides and their use” (BAYER PHARMA AKTIENGESELLSCHAFT, priority 2012, dated 2017).

What follows are compounds tested against T1, recombinant guanylate cyclase reporter cell line (Rattus norvegicus, UniProt P19686+P20595) (assay: B-2. Action on recombinant guanylate cyclase reporter cell line). Details: MEC = minimal effective concentration; in some cases mean values from individual determinations.
T1 construct: expressed in transfected cells
T1 sequence (P20595 1-619): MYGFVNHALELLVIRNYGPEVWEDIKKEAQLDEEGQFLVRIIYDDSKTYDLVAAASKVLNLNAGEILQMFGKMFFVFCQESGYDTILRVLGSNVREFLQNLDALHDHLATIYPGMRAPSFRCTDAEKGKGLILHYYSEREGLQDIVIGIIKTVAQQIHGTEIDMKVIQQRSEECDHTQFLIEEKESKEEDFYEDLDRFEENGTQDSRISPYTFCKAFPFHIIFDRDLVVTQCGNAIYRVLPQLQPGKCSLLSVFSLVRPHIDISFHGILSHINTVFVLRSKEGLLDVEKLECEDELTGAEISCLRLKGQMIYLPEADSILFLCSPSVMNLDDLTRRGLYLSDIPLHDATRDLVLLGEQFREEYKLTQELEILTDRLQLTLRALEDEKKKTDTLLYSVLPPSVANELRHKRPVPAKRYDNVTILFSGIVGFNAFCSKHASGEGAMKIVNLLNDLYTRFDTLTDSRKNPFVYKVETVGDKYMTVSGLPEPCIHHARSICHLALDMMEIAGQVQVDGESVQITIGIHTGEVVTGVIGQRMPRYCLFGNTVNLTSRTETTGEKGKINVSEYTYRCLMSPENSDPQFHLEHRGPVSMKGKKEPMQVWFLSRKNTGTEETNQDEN
T1 sequence (P19686 1-690): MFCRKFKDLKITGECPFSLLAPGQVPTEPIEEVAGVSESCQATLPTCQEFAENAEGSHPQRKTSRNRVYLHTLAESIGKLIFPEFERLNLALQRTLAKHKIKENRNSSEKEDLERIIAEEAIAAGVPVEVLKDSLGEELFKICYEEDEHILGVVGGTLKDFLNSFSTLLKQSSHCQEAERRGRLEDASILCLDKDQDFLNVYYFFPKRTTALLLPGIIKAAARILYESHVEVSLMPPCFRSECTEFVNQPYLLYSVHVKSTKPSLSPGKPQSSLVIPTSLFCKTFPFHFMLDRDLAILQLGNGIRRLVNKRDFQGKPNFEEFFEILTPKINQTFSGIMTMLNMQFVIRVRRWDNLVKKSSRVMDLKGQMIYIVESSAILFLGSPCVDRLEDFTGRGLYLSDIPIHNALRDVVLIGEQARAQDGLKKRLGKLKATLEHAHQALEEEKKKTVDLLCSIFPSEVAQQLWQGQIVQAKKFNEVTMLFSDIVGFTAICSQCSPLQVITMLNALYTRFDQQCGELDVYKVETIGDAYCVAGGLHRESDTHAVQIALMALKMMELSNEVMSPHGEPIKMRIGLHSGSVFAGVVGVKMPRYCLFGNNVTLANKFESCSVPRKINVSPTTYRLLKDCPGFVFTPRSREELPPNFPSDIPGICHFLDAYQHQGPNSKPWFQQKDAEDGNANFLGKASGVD
Assay type: cell-based
Summary of the method: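 Each compound is applied to a cell line engineered with a reporter for recombinant guanylate cyclase. The minimal effective concentration is then noted, in part as a mean across separate determinations.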

Row | Structure (SMILES) | MEC
1 | Cc1nc2c(OCc3c(F)cccc3F)cc(Cl)cn2c1C(=O)NCC(C)(N)CC(C)C (single isomer, unassigned) [Example 226, ent-N-(2-Amino-2,4-dimethylpentyl)-6-chloro-8-[(2,6-difluorobenzyl)oxy]-2-methylimidazo[1,2-a]pyridine-3-carboxamide] | 0.10 µM
2 | Cc1nc2c(OCc3c(F)cccc3F)cc(Cl)cn2c1C(=O)NCC(C)(N)CC(C)C (single isomer, unassigned) [Example 227, ent-N-(2-Amino-2,4-dimethylpentyl)-6-chloro-8-[(2,6-difluorobenzyl)oxy]-2-methylimidazo[1,2-a]pyridine-3-carboxamide] | 0.30 µM
3 | Cc1nc2c(OCc3c(F)cccc3F)cccn2c1C(=O)NCC(N)C(C)C (single isomer, unassigned) [Example 228, ent-N-(2-Amino-3-methylbutyl)-8-[(2,6-difluorobenzyl)oxy]-2-methylimidazo[1,2-a]pyridine-3-carboxamide] | 1.00 µM
4 | Cc1nc2c(OCc3c(F)cccc3F)cccn2c1C(=O)NCC(N)C(C)C (single isomer, unassigned) [Example 229, ent-N-(2-Amino-3-methylbutyl)-8-[(2,6-difluorobenzyl)oxy]-2-methylimidazo[1,2-a]pyridine-3-carboxamide] | 1.00 µM
5 | Cc1nc2c(OCc3c(F)cccc3F)cccn2c1C(=O)NCC(N)C(F)(F)C(F)F (single isomer, unassigned) [Example 231, ent-N-(2-Amino-3,3,4,4-tetrafluorobutyl)-8-[(2,6-difluorobenzyl)oxy]-2-methylimidazo[1,2-a]-pyridine-3-carboxamide] | 0.30 µM
6 | CCCC(C)(N)CNC(=O)c1c(C)nc2c(OCc3c(F)cccc3F)cc(C)cn12 (single isomer, unassigned) [Example 233, ent-N-(2-Amino-2-methylpentyl)-8-[(2,6-difluorobenzyl)oxy]-2,6-dimethylimidazo[1,2-a]pyridine-3-carboxamide] | 0.10 µM
7 | CCCC(C)(N)CNC(=O)c1c(C)nc2c(OCc3c(F)cccc3F)cc(C)cn12 (single isomer, unassigned) [Example 234, ent-N-(2-Amino-2-methylpentyl)-8-[(2,6-difluorobenzyl)oxy]-2,6-dimethylimidazo[1,2-a]pyridine-3-carboxamide] | 0.03 µM
8 | Cc1nc2c(OCc3c(F)cccc3F)cc(Cl)cn2c1C(=O)NCC(C)(N)C(F)(F)F (single isomer, unassigned) [Example 237, ent-N-(2-Amino-3,3,3-trifluoro-2-methylpropyl)-6-chloro-8-[(2,6-difluorobenzyl)oxy]-2-methylimidazo[1,2-a]pyridine-3-carboxamide] | 0.30 µM
9 | Cc1nc2c(OCc3c(F)cccc3F)cc(Cl)cn2c1C(=O)NCC(C)(N)C(F)(F)F (single isomer, unassigned) [Example 238, ent-N-(2-Amino-3,3,3-trifluoro-2-methylpropyl)-6-chloro-8-[(2,6-difluorobenzyl)oxy]-2-methylimidazo[1,2-a]pyridine-3-carboxamide] | 1.00 µM
10 | Cc1cc(OCc2c(F)cccc2F)c2nc(C)c(C(=O)NCC(C)(N)C(F)(F)F)n2c1 (single isomer, unassigned) [Example 240, ent-N-(2-Amino-3,3,3-trifluoro-2-methylpropyl)-8-[(2,6-difluorobenzyl)oxy]-2,6-dimethylimidazo-[1,2-a]pyridine-3-carboxamide] | 0.30 µM
11 | Cc1cc(OCc2c(F)cccc2F)c2nc(C)c(C(=O)NCC(C)(N)C(F)(F)F)n2c1 (single isomer, unassigned) [Example 241, ent-N-(2-Amino-3,3,3-trifluoro-2-methylpropyl)-8-[(2,6-difluorobenzyl)oxy]-2,6-dimethylimidazo-[1,2-a]pyridine-3-carboxamide] | 0.30 µM
12 | COCC(N)CNC(=O)c1c(C)nc2c(OCc3c(F)cccc3F)cc(C)cn12 (single isomer, unassigned) [Example 242, ent-N-(2-Amino-3-methoxypropyl)-8-[(2,6-difluorobenzyl)oxy]-2,6-dimethylimidazo[1,2-a]-pyridine-3-carboxamide] | 0.30 µM
13 | COCC(N)CNC(=O)c1c(C)nc2c(OCc3c(F)cccc3F)cc(C)cn12 (single isomer, unassigned) [Example 243, ent-N-(2-Amino-3-methoxypropyl)-8-[(2,6-difluorobenzyl)oxy]-2,6-dimethylimidazo[1,2-a]-pyridine-3-carboxamide] | 1.00 µM
14 | CCCC(C)(N)CNC(=O)c1c(C)nc2c(OCc3c(F)cccc3F)cc(Cl)cn12 (single isomer, unassigned) [Example 245, ent-N-(2-Amino-2-methylpentyl)-6-chloro-8-[(2,6-difluorobenzyl)oxy]-2-methylimidazo[1,2-a]-pyridine-3-carboxamide] | 0.10 µM
15 | CCCC(C)(N)CNC(=O)c1c(C)nc2c(OCc3c(F)cccc3F)cc(Cl)cn12 (single isomer, unassigned) [Example 246, ent-N-(2-Amino-2-methylpentyl)-6-chloro-8-[(2,6-difluorobenzyl)oxy]-2-methylimidazo[1,2-a]-pyridine-3-carboxamide] | 0.30 µM
16 | COCC(N)CNC(=O)c1c(C)nc2c(OCc3c(F)cccc3F)cccn12 (single isomer, unassigned) [Example 247, ent-N-(2-Amino-3-methoxypropyl)-8-[(2,6-difluorobenzyl)oxy]-2-methylimidazo[1,2-a]pyridine-3-carboxamide] | 3.00 µM
17 | CCCC(C)(N)CNC(=O)c1c(C)nc2c(OCc3c(F)ccc(F)c3F)cc(C)cn12 (single isomer, unassigned) [Example 295, ent-N-(2-amino-2-methylpentyl)-2,6-dimethyl-8-[(2,3,6-trifluorobenzyl)oxy]imidazo[1,2-a]pyridine-3-carboxamide] | 0.10 µM
18 | CCCC(C)(N)CNC(=O)c1c(C)nc2c(OCc3c(F)ccc(F)c3F)cc(C)cn12 (single isomer, unassigned) [Example 304, ent-N-(2-amino-2-methylpentyl)-2,6-dimethyl-8-[(2,3,6-trifluorobenzyl)oxy]imidazo[1,2-a]pyridine-3-carboxamide] | 0.10 µM
19 | Cc1cc(OCc2c(F)cccc2F)c2nc(C)c(C(=O)NC3CCC(N)C3)n2c1 (single isomer, unassigned) [Example 309, ent-N-(3-aminocyclopentyl)-8-[(2,6-difluorobenzyl)oxy]-2,6-dimethylimidazo[1,2-a]pyridine-3-carboxamide] | 0.30 µM
20 | Cc1nc2c(OCc3c(F)cccc3F)cccn2c1C(=O)NC(CN)CC(C(F)(F)F)C(F)(F)F (single isomer, unassigned; enantiomer a) [Example 7, ent-N-[1-Amino-5,5,5-trifluoro-4-(trifluoromethyl)pentan-2-yl]-8-[(2,6-difluorobenzyl)oxy]-2-methylimidazo[1,2-a]pyridine-3-carboxamide (Enantiomer A)] | 1.00 µM
21 | Cc1nc2c(OCc3c(F)cccc3F)cccn2c1C(=O)NC(CN)c1ccc(F)c(F)c1 (single isomer, unassigned; enantiomer a) [Example 12, ent-N-[2-Amino-1-(3,4-difluorophenyl)ethyl]-8-[(2,6-difluorobenzyl)oxy]-2-methylimidazo[1,2-a]-pyridine-3-carboxamide (Enantiomer A)] | 1.00 µM
22 | Cc1nc2c(OCc3c(F)cccc3F)cccn2c1C(=O)NC(C)CN (single isomer, unassigned; enantiomer a) [Example 19, ent-N-(1-Aminopropan-2-yl)-8-[(2,6-difluorobenzyl)oxy]-2-methylimidazo[1,2-a]pyridine-3-carboxamide (Enantiomer A)] | 1.66 µM
23 | Cc1nc2c(OCc3c(F)cccc3F)cc(Cl)cn2c1C(=O)NCC(C)N (single isomer, unassigned; enantiomer a) [Example 29, ent-N-(2-Aminopropyl)-6-chloro-8-[(2,6-difluorobenzyl)oxy]-2-methylimidazo[1,2-a]pyridine-3-carboxamide (Enantiomer A)] | 0.20 µM
